Results on 4 compounds are retold here after publication PMC11279629, “Identification of Dihydropyrazolo[1,5-a]pyrazin-4(5H)-ones as Cyclic Products of β-Amidomethyl Vinyl Sulfone Alphavirus Cysteine Protease Inhibitors” (Pharmaceuticals, 2024).

Counter-ions that a name gives are not always drawn. Like-named read-outs stand apart in the source and are kept apart here.

Data set [1] can be described thus: Pharmacokinetics in mice, 10 mg/kg i.v. It is filed as in vivo, Male CD1 mice. Particulars: for half-life: plasma, 10 mg/kg. The protocol:
Although vinyl sulfones have been used as covalent warheads for inhibition of a wide range of cysteine proteases, there are relatively few reports of their use in vivo [14].
Blood samples were centrifuged at 4000× g for 5 min at 4 °C to obtain plasma. The plasma samples from each time point were pooled and then analyzed by LCMS/MS. The PK parameters were estimated by a non-compartmental model using WinNonlin 8.3.

Data set [2] is described as follows: Storage stability as solid or 10 mM DMSO stock solution.
Data set [3] is described as follows: GSH capture assay. It is filed as physicochemical. Particulars: GSH (100×), phosphate buffer pH 7.4, 30 °C.
In data set [4] the test system is VEEV nsP2 protease. Particulars: cited from earlier work.
The subject of data set [5] is VEEV. Particulars: read-out: VEEV EC50 (alphavirus replication); cited from earlier work.

On to `CS(=O)(=O)CC1CNC(=O)c2cc(NS(=O)(=O)c3ccccc3)nn21` (stereo not shown) (as salt: TFA) [Compound 8, N-(7-((methylsulfonyl)methyl)-4-oxo-4,5,6,7-tetrahydropyrazolo[1,5-a]pyrazin-2-yl)benzenesulfonamide], for which the melting point (in general, the temperature, or range, at which the solid turns liquid) turned out to be 222 °C.
Turning to `CCOc1ccccc1-c1cc2n(n1)C(CS(C)(=O)=O)CNC2=O` (stereo not shown) [Compound 2, 2-(2-ethoxyphenyl)-7-((methylsulfonyl)methyl)-6,7-dihydropyrazolo[1,5-a]pyrazin-4(5H)-one], in data set [1], the “Plasma exposure relative to 1” value came to 4 fold. Moreover, the area under the curve AUC(0-t) (as a rule, exposure summed from dosing to a finite time, without extrapolation to infinity) in data set [1] (male, CD1, mouse, iv, pooled plasma) stood at 3800 ng·h/mL. For the same compound, the half-life in data set [1] (male, CD1, mouse, iv, pooled plasma, read-out: T1/2 (converted)) was 30.6 min. Moreover, in data set [1] (male, CD1, mouse, iv, read-out: i.v. half-life), the half-life is about 30 min. In data set [1] (pooled plasma), this compound registered a Clobs of 44 mL/min/kg and a Vssobs of 0.32 L/kg. For the same compound, in data set [2], the Stability upon storage entry was “stable”. In addition, the “GSH-Adduct Formation (%)” value in data set [3] (8 h) is 0%.
In the case of `C[C@@H]1CC(C)(C)Nc2c(C(=O)NC/C=C/S(C)(=O)=O)cccc21` [Compound #11], in data set [4], the “VEEV nsP2 protease activity inhibition” value is recorded as “micromolar inhibitor”. Besides, in data set [5], the EC50 – broadly, the concentration that produces a half-maximal response – was 1400 nM.
`CS(=O)(=O)CC1CNC(=O)c2cc(NS(=O)(=O)c3ccccc3)nn21` (stereo not shown) [Compound 8, N-(7-((methylsulfonyl)methyl)-4-oxo-4,5,6,7-tetrahydropyrazolo[1,5-a]pyrazin-2-yl)benzenesulfonamide]: the entries for the “GSH-Adduct Formation (%)” value in data set [3] (8 h) and in data set [3] (24 h) were 3% and 6%, respectively.
